test: Anticancer human tumor 997537-175-T-J1-PDC patient-derived colon adenocarcinoma cell line growth inhibition [POLQ]; conditions: 997537-175-T-J1-PDC complex spheroid viability, combination with POLQ inhibitors; curve of first compound; second compound 0.0316 µM
Outline: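 PDC + HUVEC + MSC complex spheroids; POLQ inhibitors ± partner drugs; top conc. at/near clinical Cmax, else 10 microM (SN-38 1 microM), half-log dilutions; 37 degrees C, 5% CO2.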
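Also: luminescence signal used as a surrogate for viable cells; spheroids exposed to drugs for seven days before readout.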

Row | Compound | IC50
1 | CCc1c2c(nc3ccc(O)cc13)-c1cc3c(c(=O)n1C2)COC(=O)[C@]3(O)CC + COC1C(OC(N)=O)C(O)C(Oc2ccc3c(O)c(NC(=O)c4ccc(O)c(CC=C(C)C)c4)c(=O)oc3c2C)OC1(C)C | 0.0203 µM
2 | CC1COCCN1c1cc(C2(S(C)(=N)=O)CC2)nc(-c2ccnc3[nH]ccc23)n1 (configuration not stated) + Cc1cccc(N(C)C(=O)C2C(O)CCN2c2nc(C)cc(C(F)(F)F)c2C#N)c1 | 9.37 µM
3 | CNCc1ccc(-c2[nH]c3cc(F)cc4c3c2CCNC4=O)cc1 + Nc1ccc(C#CCN(C(=O)Cc2ncc(C(F)(F)F)cc2C(F)(F)F)c2ccc(F)cc2)nn1 | > 10 µM
4 | O=C(c1cc(Cc2n[nH]c(=O)c3ccccc23)ccc1F)N1CCN(C(=O)C2CC2)CC1 + Cc1cccc(N(C)C(=O)C2C(O)CCN2c2nc(C)cc(C(F)(F)F)c2C#N)c1 | > 10 µM

same assay, conditions: 997537-175-T-J1-PDC complex spheroid viability, combination with POLQ inhibitors; curve of first compound; second compound 0.1 µM

Row | Compound | IC50
5 | CCc1c2c(nc3ccc(O)cc13)-c1cc3c(c(=O)n1C2)COC(=O)[C@]3(O)CC + COC1C(OC(N)=O)C(O)C(Oc2ccc3c(O)c(NC(=O)c4ccc(O)c(CC=C(C)C)c4)c(=O)oc3c2C)OC1(C)C | 0.0194 µM
6 | CC1COCCN1c1cc(C2(S(C)(=N)=O)CC2)nc(-c2ccnc3[nH]ccc23)n1 (configuration not stated) + Cc1cccc(N(C)C(=O)C2C(O)CCN2c2nc(C)cc(C(F)(F)F)c2C#N)c1 | > 10 µM
7 | CNCc1ccc(-c2[nH]c3cc(F)cc4c3c2CCNC4=O)cc1 + Nc1ccc(C#CCN(C(=O)Cc2ncc(C(F)(F)F)cc2C(F)(F)F)c2ccc(F)cc2)nn1 | > 10 µM
8 | O=C(c1cc(Cc2n[nH]c(=O)c3ccccc23)ccc1F)N1CCN(C(=O)C2CC2)CC1 + Cc1cccc(N(C)C(=O)C2C(O)CCN2c2nc(C)cc(C(F)(F)F)c2C#N)c1 | > 10 µM

same assay, conditions: 997537-175-T-J1-PDC complex spheroid viability, combination with POLQ inhibitors; curve of first compound; second compound 0.316 µM

Row | Compound | IC50
9 | CCc1c2c(nc3ccc(O)cc13)-c1cc3c(c(=O)n1C2)COC(=O)[C@]3(O)CC + COC1C(OC(N)=O)C(O)C(Oc2ccc3c(O)c(NC(=O)c4ccc(O)c(CC=C(C)C)c4)c(=O)oc3c2C)OC1(C)C | 0.0197 µM
10 | CC1COCCN1c1cc(C2(S(C)(=N)=O)CC2)nc(-c2ccnc3[nH]ccc23)n1 (configuration not stated) + Cc1cccc(N(C)C(=O)C2C(O)CCN2c2nc(C)cc(C(F)(F)F)c2C#N)c1 | 8.26 µM
11 | CNCc1ccc(-c2[nH]c3cc(F)cc4c3c2CCNC4=O)cc1 + Nc1ccc(C#CCN(C(=O)Cc2ncc(C(F)(F)F)cc2C(F)(F)F)c2ccc(F)cc2)nn1 | > 10 µM
12 | O=C(c1cc(Cc2n[nH]c(=O)c3ccccc23)ccc1F)N1CCN(C(=O)C2CC2)CC1 + Cc1cccc(N(C)C(=O)C2C(O)CCN2c2nc(C)cc(C(F)(F)F)c2C#N)c1 | > 10 µM

same assay, conditions: 997537-175-T-J1-PDC complex spheroid viability, combination with POLQ inhibitors; curve of first compound; second compound 1 µM

Row | Compound | IC50
13 | CCc1c2c(nc3ccc(O)cc13)-c1cc3c(c(=O)n1C2)COC(=O)[C@]3(O)CC + COC1C(OC(N)=O)C(O)C(Oc2ccc3c(O)c(NC(=O)c4ccc(O)c(CC=C(C)C)c4)c(=O)oc3c2C)OC1(C)C | 0.0153 µM
14 | CC1COCCN1c1cc(C2(S(C)(=N)=O)CC2)nc(-c2ccnc3[nH]ccc23)n1 (configuration not stated) + Cc1cccc(N(C)C(=O)C2C(O)CCN2c2nc(C)cc(C(F)(F)F)c2C#N)c1 | 7.19 µM
15 | CNCc1ccc(-c2[nH]c3cc(F)cc4c3c2CCNC4=O)cc1 + Nc1ccc(C#CCN(C(=O)Cc2ncc(C(F)(F)F)cc2C(F)(F)F)c2ccc(F)cc2)nn1 | > 10 µM
16 | O=C(c1cc(Cc2n[nH]c(=O)c3ccccc23)ccc1F)N1CCN(C(=O)C2CC2)CC1 + Cc1cccc(N(C)C(=O)C2C(O)CCN2c2nc(C)cc(C(F)(F)F)c2C#N)c1 | > 10 µM

same assay, conditions: 997537-175-T-J1-PDC complex spheroid viability, combination with POLQ inhibitors; curve of first compound; second compound 3.16 µM

Row | Compound | IC50
17 | CCc1c2c(nc3ccc(O)cc13)-c1cc3c(c(=O)n1C2)COC(=O)[C@]3(O)CC + COC1C(OC(N)=O)C(O)C(Oc2ccc3c(O)c(NC(=O)c4ccc(O)c(CC=C(C)C)c4)c(=O)oc3c2C)OC1(C)C | 0.0186 µM
18 | CC1COCCN1c1cc(C2(S(C)(=N)=O)CC2)nc(-c2ccnc3[nH]ccc23)n1 (configuration not stated) + Cc1cccc(N(C)C(=O)C2C(O)CCN2c2nc(C)cc(C(F)(F)F)c2C#N)c1 | > 10 µM
19 | CNCc1ccc(-c2[nH]c3cc(F)cc4c3c2CCNC4=O)cc1 + Nc1ccc(C#CCN(C(=O)Cc2ncc(C(F)(F)F)cc2C(F)(F)F)c2ccc(F)cc2)nn1 | > 10 µM
20 | O=C(c1cc(Cc2n[nH]c(=O)c3ccccc23)ccc1F)N1CCN(C(=O)C2CC2)CC1 + Cc1cccc(N(C)C(=O)C2C(O)CCN2c2nc(C)cc(C(F)(F)F)c2C#N)c1 | > 10 µM

same assay, conditions: 997537-175-T-J1-PDC complex spheroid viability, combination with POLQ inhibitors; curve of first compound; second compound 10 µM

Row | Compound | IC50
21 | CCc1c2c(nc3ccc(O)cc13)-c1cc3c(c(=O)n1C2)COC(=O)[C@]3(O)CC + COC1C(OC(N)=O)C(O)C(Oc2ccc3c(O)c(NC(=O)c4ccc(O)c(CC=C(C)C)c4)c(=O)oc3c2C)OC1(C)C | 0.0131 µM
22 | CC1COCCN1c1cc(C2(S(C)(=N)=O)CC2)nc(-c2ccnc3[nH]ccc23)n1 (configuration not stated) + Cc1cccc(N(C)C(=O)C2C(O)CCN2c2nc(C)cc(C(F)(F)F)c2C#N)c1 | > 10 µM
23 | CNCc1ccc(-c2[nH]c3cc(F)cc4c3c2CCNC4=O)cc1 + Nc1ccc(C#CCN(C(=O)Cc2ncc(C(F)(F)F)cc2C(F)(F)F)c2ccc(F)cc2)nn1 | > 10 µM
24 | O=C(c1cc(Cc2n[nH]c(=O)c3ccccc23)ccc1F)N1CCN(C(=O)C2CC2)CC1 + Cc1cccc(N(C)C(=O)C2C(O)CCN2c2nc(C)cc(C(F)(F)F)c2C#N)c1 | > 10 µM

same assay, conditions: 997537-175-T-J1-PDC complex spheroid viability, combination with POLQ inhibitors; second compound 0.0316 µM; first compound 0.00316 µM; stronger effect = lower value

Row | Compound | viability, T/C
25 | CCc1c2c(nc3ccc(O)cc13)-c1cc3c(c(=O)n1C2)COC(=O)[C@]3(O)CC + COC1C(OC(N)=O)C(O)C(Oc2ccc3c(O)c(NC(=O)c4ccc(O)c(CC=C(C)C)c4)c(=O)oc3c2C)OC1(C)C | 73.2%

same assay, conditions: 997537-175-T-J1-PDC complex spheroid viability, combination with POLQ inhibitors; second compound 0.0316 µM; first compound 0.01 µM; stronger effect = lower value

Row | Compound | viability, T/C
26 | CCc1c2c(nc3ccc(O)cc13)-c1cc3c(c(=O)n1C2)COC(=O)[C@]3(O)CC + COC1C(OC(N)=O)C(O)C(Oc2ccc3c(O)c(NC(=O)c4ccc(O)c(CC=C(C)C)c4)c(=O)oc3c2C)OC1(C)C | 79.5%

same assay, conditions: 997537-175-T-J1-PDC complex spheroid viability, combination with POLQ inhibitors; second compound 0.0316 µM; first compound 0.0316 µM; stronger effect = lower value

Row | Compound | viability, T/C
27 | CCc1c2c(nc3ccc(O)cc13)-c1cc3c(c(=O)n1C2)COC(=O)[C@]3(O)CC + COC1C(OC(N)=O)C(O)C(Oc2ccc3c(O)c(NC(=O)c4ccc(O)c(CC=C(C)C)c4)c(=O)oc3c2C)OC1(C)C | 33.5%
28 | CC1COCCN1c1cc(C2(S(C)(=N)=O)CC2)nc(-c2ccnc3[nH]ccc23)n1 (configuration not stated) + Cc1cccc(N(C)C(=O)C2C(O)CCN2c2nc(C)cc(C(F)(F)F)c2C#N)c1 | 97.9%
29 | CNCc1ccc(-c2[nH]c3cc(F)cc4c3c2CCNC4=O)cc1 + Nc1ccc(C#CCN(C(=O)Cc2ncc(C(F)(F)F)cc2C(F)(F)F)c2ccc(F)cc2)nn1 | 106%
30 | O=C(c1cc(Cc2n[nH]c(=O)c3ccccc23)ccc1F)N1CCN(C(=O)C2CC2)CC1 + Cc1cccc(N(C)C(=O)C2C(O)CCN2c2nc(C)cc(C(F)(F)F)c2C#N)c1 | 107%

same assay, conditions: 997537-175-T-J1-PDC complex spheroid viability, combination with POLQ inhibitors; second compound 0.0316 µM; first compound 0.1 µM; stronger effect = lower value

Row | Compound | viability, T/C
31 | CCc1c2c(nc3ccc(O)cc13)-c1cc3c(c(=O)n1C2)COC(=O)[C@]3(O)CC + COC1C(OC(N)=O)C(O)C(Oc2ccc3c(O)c(NC(=O)c4ccc(O)c(CC=C(C)C)c4)c(=O)oc3c2C)OC1(C)C | 22.7%
32 | CC1COCCN1c1cc(C2(S(C)(=N)=O)CC2)nc(-c2ccnc3[nH]ccc23)n1 (configuration not stated) + Cc1cccc(N(C)C(=O)C2C(O)CCN2c2nc(C)cc(C(F)(F)F)c2C#N)c1 | 106%
33 | CNCc1ccc(-c2[nH]c3cc(F)cc4c3c2CCNC4=O)cc1 + Nc1ccc(C#CCN(C(=O)Cc2ncc(C(F)(F)F)cc2C(F)(F)F)c2ccc(F)cc2)nn1 | 102%
34 | O=C(c1cc(Cc2n[nH]c(=O)c3ccccc23)ccc1F)N1CCN(C(=O)C2CC2)CC1 + Cc1cccc(N(C)C(=O)C2C(O)CCN2c2nc(C)cc(C(F)(F)F)c2C#N)c1 | 97.5%

same assay, conditions: 997537-175-T-J1-PDC complex spheroid viability, combination with POLQ inhibitors; second compound 0.0316 µM; first compound 0.316 µM; stronger effect = lower value

Row | Compound | viability, T/C
35 | CCc1c2c(nc3ccc(O)cc13)-c1cc3c(c(=O)n1C2)COC(=O)[C@]3(O)CC + COC1C(OC(N)=O)C(O)C(Oc2ccc3c(O)c(NC(=O)c4ccc(O)c(CC=C(C)C)c4)c(=O)oc3c2C)OC1(C)C | 4.91%
36 | CC1COCCN1c1cc(C2(S(C)(=N)=O)CC2)nc(-c2ccnc3[nH]ccc23)n1 (configuration not stated) + Cc1cccc(N(C)C(=O)C2C(O)CCN2c2nc(C)cc(C(F)(F)F)c2C#N)c1 | 102%
37 | CNCc1ccc(-c2[nH]c3cc(F)cc4c3c2CCNC4=O)cc1 + Nc1ccc(C#CCN(C(=O)Cc2ncc(C(F)(F)F)cc2C(F)(F)F)c2ccc(F)cc2)nn1 | 100%
38 | O=C(c1cc(Cc2n[nH]c(=O)c3ccccc23)ccc1F)N1CCN(C(=O)C2CC2)CC1 + Cc1cccc(N(C)C(=O)C2C(O)CCN2c2nc(C)cc(C(F)(F)F)c2C#N)c1 | 94.8%

same assay, conditions: 997537-175-T-J1-PDC complex spheroid viability, combination with POLQ inhibitors; second compound 0.0316 µM; first compound 1 µM; stronger effect = lower value

Row | Compound | viability, T/C
39 | CCc1c2c(nc3ccc(O)cc13)-c1cc3c(c(=O)n1C2)COC(=O)[C@]3(O)CC + COC1C(OC(N)=O)C(O)C(Oc2ccc3c(O)c(NC(=O)c4ccc(O)c(CC=C(C)C)c4)c(=O)oc3c2C)OC1(C)C | 4.67%
40 | CC1COCCN1c1cc(C2(S(C)(=N)=O)CC2)nc(-c2ccnc3[nH]ccc23)n1 (configuration not stated) + Cc1cccc(N(C)C(=O)C2C(O)CCN2c2nc(C)cc(C(F)(F)F)c2C#N)c1 | 98.8%
41 | CNCc1ccc(-c2[nH]c3cc(F)cc4c3c2CCNC4=O)cc1 + Nc1ccc(C#CCN(C(=O)Cc2ncc(C(F)(F)F)cc2C(F)(F)F)c2ccc(F)cc2)nn1 | 97.1%
42 | O=C(c1cc(Cc2n[nH]c(=O)c3ccccc23)ccc1F)N1CCN(C(=O)C2CC2)CC1 + Cc1cccc(N(C)C(=O)C2C(O)CCN2c2nc(C)cc(C(F)(F)F)c2C#N)c1 | 92.3%
